Laboratory results taken from patent US20250049036A1 (priority 2021, published 2025).

Legend:
[1] = test system: Parastagonospora nodorum; assay: Parastagonospora nodorum (PARANO) spore growth inhibition in liquid medium, 96-well microtiter plate, OD 600; type: cell-based; conditions: spore suspension in PDB liquid medium, 18° C., 5-6 days, OD at 600, read-out: control compared to the untreated check
How it was run: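 Read-out is percent growth inhibition from OD at 600 after 5-6 days at 18° C. Compounds, dissolved in DMSO, were diluted in potato dextrose broth and combined in equal volume with a 10^5 spores/ml suspension of PARANO.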

[2] = test system: Colletotrichum capsici; assay: Colletotrichum capsici (anthracnose) mycelial radial growth on potato dextrose agar; type: cell-based; conditions: Colletotrichum truncatum, 168 h, 25° C., seven days, read-out: control compared to the untreated check
How it was run: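 Compounds in 0.3% DMSO were mixed into potato dextrose agar, and each plate was seeded with a 5 mm mycelial disc from an actively growing culture. Plates were incubated at 25° C and 60% relative humidity for seven days. Radial growth was compared with untreated control.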

[3] = test system: Phakopsora pachyrhizi; assay: Phakopsora pachyrhizi test on soybean, preventive, greenhouse; type: in vivo; conditions: preventive spray on soybean, inoculated one day after treatment, read-out: control (efficacy, disease severity) compared to the untreated check
How it was run: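 Greenhouse-grown young soybean plants were sprayed with compound (2% DMSO/acetone, emulsifier in water) at the stated rate. One day later they were inoculated with 2×10^5 P. pachyrhizi inoculum and held at 22-24 °C, 80-90% relative humidity for disease development.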

[4] = test system: Botrytis cinerea; assay: Botrytis cinerea test on tomato, preventive, greenhouse; type: in vivo; conditions: preventive spray on bean/chili plants (heading: tomato), inoculated one day after treatment, read-out: control (efficacy, disease severity) compared to the untreated check
[5] = test system: Venturia Inequalis; assay: Venturia inequalis (VENTIN) spore growth inhibition in liquid medium, 96-well microtiter plate, OD 600; type: cell-based; conditions: spore suspension in PDB liquid medium, 18° C., 15-18 days, OD at 600, read-out: control compared to the untreated check
How it was run: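 Venturia inequalis spores (10^5 spores/ml suspension) were grown in potato dextrose broth with test compounds dissolved in DMSO, mixing equal volumes of compound solution and spore suspension. Plates were incubated at 18 °C for 15–18 days. Growth was read as OD600 and converted to percent inhibition.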

[6] = test system: Fusarium culmorum; assay: Fusarium culmorum test on wheat, preventive, greenhouse; type: in vivo; conditions: preventive spray on wheat, inoculated one day after treatment, read-out: control (efficacy, disease severity) compared to the untreated check
Procedure: The respective compound was dissolved in 2% dimethyl sulfoxide/acetone and then mixed with water containing an emulsifier to a calibrated spray volume of 30 mL. Each spray solution was poured into a spray bottle for further application.
To test the preventive activity of a compound, healthy young wheat plants, raised in the greenhouse, were sprayed with the active compound preparation at the stated application rate inside the spray cabinets using hollow cone nozzles. One day after the treatment, the plants were inoculated with a spore suspension containing 2×10^6 Fusarium culmorum inoculum. The inoculated plants were then kept in a greenhouse chamber at 24° C. temperature and 80-90% relative humidity for disease expression.
A visual assessment of the compound's performance was carried out by rating the disease severity (0 100% scale) on treated plants 3, 7, 10 and 15 days after application. Efficacy (% control) of the compound was calculated by comparing the disease rating in the treatment with the one of the untreated control. The treated plants were also assessed for plant damage by recording symptoms like necrosis, chlorosis and stunting.

[7] = test system: Pyricularia oryzae; assay: microbe, parasite or virus in culture; type: cell-based; conditions: 168 h, read-out: control compared to the untreated check
[8] = test system: Alternaria solani; assay: Alternaria solani (early blight of tomato/potato) mycelial radial growth on potato dextrose agar; type: cell-based; conditions: 168 h, 25° C., seven days, read-out: control compared to the untreated check
Procedure: The compounds were dissolved in 0.3% dimethyl sulfoxide and then added to potato dextrose agar medium just prior to dispensing it into petri dishes. 5 mL medium, with the compound in the desired concentration, was dispensed into 60 mm sterile petri-plates. After solidification, each plate was seeded with a 5 mm size mycelial disc taken from the periphery of an actively growing virulent culture plate. The plates were incubated in growth chambers at 25° C. temperature and 60% relative humidity for seven days and the radial growth was measured and compared to the one of the untreated control.

[9] = test system: Botrytis cinerea; assay: Botrytis cinerea (gray mold) mycelial radial growth on potato dextrose agar; type: cell-based; conditions: 168 h, 22° C., seven days, read-out: control compared to the untreated check
How it was run: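 Compounds in 0.3% DMSO were mixed into potato dextrose agar, and plates were seeded with 5 mm mycelial discs from actively growing virulent culture. After seven days at 22 °C and 90% relative humidity, radial growth was measured relative to untreated control.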

[10] = test system: Botrytis cinerea; assay: Botrytis cinerea liq. (BOTRCI) spore growth inhibition in liquid medium, 96-well microtiter plate, OD 405 nm; type: cell-based; conditions: spore suspension in YBA liquid medium, 22° C., 5-6 days, OD at 405 nm, read-out: control compared to the untreated check
How it was run: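 Spore suspension of B. cinerea (10^4 spores/ml) in YBA liquid medium mixed 1:1 with compound diluted from DMSO. Incubated at 22° C. for 5-6 days. Growth read as OD 405 nm; percent inhibition derived from treatment, untreated-control and blank readings.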

[11] = test system: Phytophthora infestans; assay: whole plant or invertebrate; type: in vivo, Phytophthora infestans on tomato; conditions: in Solanum lycopersicum, read-out: control (efficacy, disease severity) compared to the untreated check
[12] = test system: Phytophthora infestans; assay: microbe, parasite or virus in culture; type: cell-based; conditions: 168 h, read-out: control compared to the untreated check

CC(C)CC(C)(Cc1ccccc1)NC(=O)c1cnc2c(c1)CCCC2 (stereo not drawn) [Compound 44, N-(2,4-dimethyl-1-phenylpentan-2-yl)-5,6,7,8-tetrahydroquinoline-3-carboxamide]
≥ 70%: inhibition of growth at 300 ppm [1] | inhibition of growth at 300 ppm [2] | pest or weed control at 500 ppm [3] | pest or weed control at 500 ppm [4] | inhibition of growth at 300 ppm [5] | pest or weed control at 500 ppm [6] | inhibition of growth at 300 ppm [7]

Cc1ccc(CC(C)(C)NC(=O)c2cnc3c(ccn3C)c2)cc1 [Compound 50, 1-methyl-N-(2-methyl-1-(p-tolyl)propan-2-yl)-1H-pyrrolo[2,3-b] pyridine-5-carboxamide]
≥ 70%: inhibition of growth at 300 ppm [8] | inhibition of growth at 300 ppm [1] | inhibition of growth at 300 ppm [2] | pest or weed control at 500 ppm [3] | inhibition of growth at 300 ppm [9] | inhibition of growth at 300 ppm [10] | pest or weed control at 500 ppm [6] | inhibition of growth at 300 ppm [7]

CC(C)CC(C)(Cc1ccccc1)NC(=O)c1cnc2c(c1)CCC2 (stereo not drawn) [Compound 62, N-(2,4-dimethyl-1-phenylpentan-2-yl)-6,7-dihydro-5H-cyclopenta[b]pyridine-3-carboxamide]
≥ 70%: inhibition of growth at 300 ppm [2] | pest or weed control at 500 ppm [11] | pest or weed control at 500 ppm [3] | pest or weed control at 500 ppm [4] | inhibition of growth at 300 ppm [5] | pest or weed control at 500 ppm [6]

CC(c1ccccc1F)C(C)(C)NC(=O)c1cnc2c(c1)c(Br)cn2C (stereo not drawn) [Compound 63, 3-bromo-N-(3-(2-fluorophenyl)-2-methylbutan-2-yl)-1-methyl-1H-pyrrolo[2,3-b]pyridine-5-carboxamide]
≥ 70%: inhibition of growth at 300 ppm [1] | pest or weed control at 500 ppm [11] | pest or weed control at 500 ppm [3] | pest or weed control at 500 ppm [4] | inhibition of growth at 300 ppm [5] | inhibition of growth at 300 ppm [9] | inhibition of growth at 300 ppm [10] | pest or weed control at 500 ppm [6] | inhibition of growth at 300 ppm [7]

CC(C)(Cc1ccccc1)NC(=O)c1cnc2c(c1)CCC2 [Compound 67, N-(2-methyl-1-phenylpropan-2-yl)-6,7-dihydro-5H-cyclopenta[b]pyridine-3-carboxamide]
≥ 70%: inhibition of growth at 300 ppm [1] | pest or weed control at 500 ppm [11] | pest or weed control at 500 ppm [3] | pest or weed control at 500 ppm [4] | inhibition of growth at 300 ppm [5] | inhibition of growth at 300 ppm [9] | inhibition of growth at 300 ppm [10] | pest or weed control at 500 ppm [6]

CC(C)CC(C)(Cc1ccccc1)NC(=O)c1cnc2c(c1)OCCN2C (stereo not drawn) [Compound 81, N-(2,4-dimethyl-1-phenylpentan-2-yl)-4-methyl-3,4-dihydro-2H-pyrido[3,2-b] [1,4]oxazine-7-carboxamide]
≥ 70%: inhibition of growth at 300 ppm [1] | inhibition of growth at 300 ppm [2] | pest or weed control at 500 ppm [11] | pest or weed control at 500 ppm [4] | inhibition of growth at 300 ppm [5] | pest or weed control at 500 ppm [6] | inhibition of growth at 300 ppm [7]

COc1nc2c(ccn2C)cc1C(=O)NC(C)(Cc1ccccc1)CC(C)C (stereo not drawn) [Compound 92, N-(2,4-dimethyl-1-phenylpentan-2-yl)-6-methoxy-1-methyl-1H-pyrrolo[2,3-b]pyridine-5-carboxamide]
≥ 70%: inhibition of growth at 300 ppm [12] | pest or weed control at 500 ppm [4] | pest or weed control at 500 ppm [6]

Cc1cc2cc(C(=O)NC(C)(C)Cc3ccccc3)cnc2n1C [Compound 99, 1,2-dimethyl-N-(2-methyl-1-phenylpropan-2-yl)-1H-pyrrolo[2,3-b] pyridine-5-carboxamide]
≥ 70%: inhibition of growth at 300 ppm [8] | inhibition of growth at 300 ppm [1] | inhibition of growth at 300 ppm [2] | pest or weed control at 500 ppm [3] | pest or weed control at 500 ppm [6] | inhibition of growth at 300 ppm [7]

Cc1cc2cc(C(=O)NC(C)(C)Cc3ccc(Cl)cc3)cnc2n1C [Compound 101, N-(1-(4-chlorophenyl)-2-methylpropan-2-yl)-1,2-dimethyl-1H-pyrrolo[2,3-b]pyridine-5-carboxamide]
≥ 70%: inhibition of growth at 300 ppm [1] | inhibition of growth at 300 ppm [2] | pest or weed control at 500 ppm [3] | inhibition of growth at 300 ppm [9] | inhibition of growth at 300 ppm [10] | pest or weed control at 500 ppm [6]

Cc1ccc(CC(C)(C)NC(=O)c2cnc3c(c2)cc(C)n3C)cc1 [Compound 102, 1,2-dimethyl-N-(2-methyl-1-(p-tolyl)propan-2-yl)-1H-pyrrolo[2,3-b]pyridine-5-carboxamide]
≥ 70%: inhibition of growth at 300 ppm [1] | inhibition of growth at 300 ppm [2] | pest or weed control at 500 ppm [3] | pest or weed control at 500 ppm [4] | inhibition of growth at 300 ppm [5] | pest or weed control at 500 ppm [6]

Cc1cc2cc(C(=O)NC(C)(C)Cc3ccccc3F)cnc2n1C [Compound 103, N-(1-(2-fluorophenyl)-2-methylpropan-2-yl)-1,2-dimethyl-1H-pyrrolo[2,3-b]pyridine-5-carboxamide]
≥ 70%: inhibition of growth at 300 ppm [1] | inhibition of growth at 300 ppm [2] | pest or weed control at 500 ppm [3] | pest or weed control at 500 ppm [6]

C=C(C)CC(C)(COc1ccccc1F)NC(=O)c1cnc2c(ccn2C)c1 (stereo not drawn) [Compound 155, N-(1-(2-fluorophenoxy)-2,4-dimethylpent-4-en-2-yl)-1-methyl-1H-pyrrolo[2,3-b]pyridine-5-carboxamide]
≥ 70%: inhibition of growth at 300 ppm [1] | inhibition of growth at 300 ppm [2] | pest or weed control at 500 ppm [3] | inhibition of growth at 300 ppm [5] | pest or weed control at 500 ppm [6]
